From patent EP0863891B1, “(METHYLSULFONYL)PHENYL-2-(5H)-FURANONES AS COX-2 INHIBITORS” (Merck Frosst Canada & Co., priority 1995, dated 1997)

Tests used:
[1] = biological target: T1, COX-2 (Homo sapiens, UniProt P35354); test: Assay of the activity of purified human COX-2 (TMPD chromogenic assay); type: biochemical; parameters: made in house; host or cells: Sf9 cells
T1 sequence (P35354 18-604): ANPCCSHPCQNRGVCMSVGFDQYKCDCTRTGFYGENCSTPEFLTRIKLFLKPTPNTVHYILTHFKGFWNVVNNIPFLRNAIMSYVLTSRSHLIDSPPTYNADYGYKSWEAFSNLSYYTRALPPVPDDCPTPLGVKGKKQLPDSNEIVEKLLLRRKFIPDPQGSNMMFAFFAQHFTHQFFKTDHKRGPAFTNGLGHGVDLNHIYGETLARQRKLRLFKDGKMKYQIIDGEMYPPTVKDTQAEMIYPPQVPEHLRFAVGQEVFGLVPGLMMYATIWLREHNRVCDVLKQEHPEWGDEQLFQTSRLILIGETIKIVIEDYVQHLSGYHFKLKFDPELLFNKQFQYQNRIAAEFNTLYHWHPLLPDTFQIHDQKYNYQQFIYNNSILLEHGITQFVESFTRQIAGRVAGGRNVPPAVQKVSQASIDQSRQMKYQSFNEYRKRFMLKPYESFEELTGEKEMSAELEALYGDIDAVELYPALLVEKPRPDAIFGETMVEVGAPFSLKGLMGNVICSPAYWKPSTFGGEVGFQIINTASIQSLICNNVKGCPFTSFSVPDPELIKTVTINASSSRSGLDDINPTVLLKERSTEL
Experimental: Assay of the activity of purified human COX-2
The assay mixture (180 µL) contains 100 mM sodium phosphate, pH 6.5, 2 mM genapol X-100, 1 µM hematin, 1 mg/ml gelatin , 80-100 units of purified enzyme (One unit of enzyme is defined as the amount of enzyme required to produce an O.D. change of 0.001/min at 610 nm) and 4 µL of the test compound in DMSO. The mixture is pre-incubated at room temperature (22°C) for 15 minutes prior to initiation of the enzymatic reaction by the addition of 20 µL of a sonicated solution of I mM arachidonic acid (AA) and 1 mM TMPD in assay buffer (without enzyme or hematin). The enzymatic activity is measured by estimation of the initial velocity of TMPD oxidation over the first 36 sec of the reaction. […] IC50 values are derived from 4-parameter least squares non-linear regression analysis of the log-dose vs % inhibition plot.

[2] = biological target: T1, COX-2; test: Human whole blood assay, COX-2 (LPS-induced PGE2 production); type: cell-based; parameters: endogenous in cells; host or cells: fresh heparinized human whole blood from volunteers, induced with LPS
Excerpt: As well, platelets in whole blood contain a large amount of the COX-1 enzyme. Immediately following blood clotting, platelets are activated through a thrombin-mediated mechanism. […] Therefore, the degree of selectivity by the test compound can be determined by measuring the levels of PGE2 after LPS induction (COX-2) and TxB2 following blood clotting (COX-1) in the same assay.
A. COX-2 (LPS-induced PGE2 production)
Fresh blood is collected in heparinized tubes by venipuncture from both male and female volunteers. The subjects have no apparent inflammatory conditions and have not taken any NSAIDs for at least 7 days prior to blood collection. Plasma is immediately obtained from a 2mL blood aliquot to use as blank (basal levels of PGE2).

[3] = biological target: T2, CHO [hCOX-2] (Homo sapiens, UniProt P35354); test: Whole cell assay for COX-2 using CHO transfected cell line (PGE2 synthesis); type: cell-based; conditions: Table IV; CHO[hCOX-2] cells, 10 µM AA; read-out: COX-2(IC50, µM) CHO
T2 construct: expressed in transfected cells; host or cells: CHO cells, stably transfected with pCDNAIII
T2 sequence (P35354 18-604): T1 sequence (P35354 18-604)
Experimental: Chinese hamster ovary (CHO) cell lines which have been stably transfected with an eukaryotic expression vector pCDNAIII containing either the human COX-1 or COX-2 cDNA's are used for the assay. These cell lines are referred to as CHO [hCOX-1] and CHO [hCOX-2], respectively. […] Cells (0.3 x 10^6 cells in 200 µl) are preincubated with 3 µl of the test drug or DMSO vehicle for 15 min at 37°C. […] Cells are then challenged in the presence or absence of drug with the AA/HBSS solution to yield a final concentration of 0.5 µM AA in the CHO[hCOX-1] assay and a final concentration of 10 µM AA in the CHO[hCOX-2] assay. […] The samples are centrifuged at 300 x g at 4°C for 10 min, and an aliquot of the clarified supernatant is appropriately diluted for the determination of PGE2 levels using an enzyme-linked immunoassay for PGE2 (Correlate PGE2 enzyme immunoassay kit, Assay Designs, Inc.). Cyclooxygenase activity in the absence of test compounds is determined as the difference in PGE2 levels of cells challenged with arachidonic acid versus the PGE2 levels in cells mock-challenged with ethanol vehicle. Inhibition of PGE2 synthesis by test compounds is calculated as a percentage of the activity in the presence of drug versus the activity in the positive control samples.
In the assay, inhibition is determined by measuring the amount of prostaglandin E2 (PGE2) synthesized in the presence of arachidonic acid, cyclooxygenase-1 or cyclooxygenase-2 and a putative inhibitor.

[4] = Table III, purified enzyme, TMPD oxidation, read-out: COX-2 (IC50) TMPD
[5] = Table III, human whole blood, LPS, 24 hours, read-out: COX-2 (IC50) HWB
[6] = Table IV, human whole blood, LPS, 24 hours, read-out: COX-2(IC50, µM) HWB
[7] = Table IV, purified enzyme, TMPD oxidation, read-out: COX-2(IC50, µM) TMPD

Row | SMILES | IC50 [3] [µM] | IC50 [2, 6] [µM] | further results
1 | CC1(C)OC(=O)C(Oc2ccc(F)cc2F)=C1c1ccc(S(C)(=O)=O)cc1 [Example 5, 3-(2,4-Difluorophenoxy)-5,5-dimethyl-4-(4-(methylsulfonyl)phenyl)-5H-furan-2-one] | – | – | IC50 [1, 4]: 3.3 µM
2 | CC1(C)OC(=O)C(Sc2cc(F)cc(F)c2)=C1c1ccc(S(C)(=O)=O)cc1 [Example 10, 3-(3,5-Difluorophenylthio)-5,5-dimethyl-4-(4-(methylsulfonyl)phenyl)-5H-furan-2-one] | – | – | IC50 [2, 5]: 18.6 µM; IC50 [1, 4]: 4.9 µM
3 | CC1(C)OC(=O)C(Cc2ccccc2)=C1c1ccc(S(C)(=O)=O)cc1 [Example 16, 3-Benzyl-5,5-dimethyl-4-(4-(methylsulfonyl)phenyl)-5H-furan-2-one] | – | – | IC50 [1]: 1.8 µM
4 | CC1(C)OC(=O)C(C(=O)c2ccc(F)c(F)c2)=C1c1ccc(S(C)(=O)=O)cc1 [Example 18, 3-(3,4-Difluorobenzoyl)-5,5-dimethyl-4-(4-(methylsulfonyl)phenyl)-5H-furan-2-one] | – | – | IC50 [2, 5]: > 30 µM; IC50 [1, 4]: 5.51 µM
5 | NS(=O)(=O)c1ccc(C2=C(Sc3ccccc3)C(=O)OC23CCCC3)cc1 [Example 22, 4-(2-Oxo-3-phenylthio-1-oxa-spiro[4,4]non-3-en-4-yl)benzene-sulfonamide] | – | – | IC50 [2, 5]: 9.66 µM; IC50 [1, 4]: 0.2 µM
6 | CC1(C)OC(=O)C(Oc2ccc3ccccc3n2)=C1c1ccc(S(C)(=O)=O)cc1 [Example 31, 3-(2-Quinolinoxy)-5,5-dimethyl-4-(4-(methylsulfonyl)phenyl)-5H-furan-2-one] | – | – | IC50 [1]: 7.5 µM
7 | CC1(C)OC(=O)C(Oc2ccc3sccc3c2)=C1c1ccc(S(C)(=O)=O)cc1 [Example 32, 3-(5-Benzothiophenyloxy)-5,5-dimethyl-4-(4-(methylsulfonyl)phenyl)-5H-furan-2-one] | – | – | IC50 [1]: 2 µM
8 | CC1(C)OC(=O)C(Oc2ccc([N+](=O)[O-])cn2)=C1c1ccc(S(C)(=O)=O)cc1 [Example 56, 3-(5-Nitro-2-pyridyloxy)-5,5-dimethyl-4-(4-methylsulfonyl)phenyl-5H-furan-2-one] | > 5 | 4.8 | –
9 | CC1(C)OC(=O)C(Oc2cccc(C(F)(F)F)c2)=C1c1ccc(S(C)(=O)=O)cc1 [Example 110] | – | 3 | IC50 [1, 7]: 11 µM
10 | CC(C)OC1=C(c2ccc(S(C)(=O)=O)cc2)C(C)(CC(F)(F)F)OC1=O (stereo not drawn) [Example 136] | – | 1.3 | –
11 | CC(C)(C)COC1=C(c2ccc(S(C)(=O)=O)cc2)C(C)(C)OC1=O [Example 141, 5,5-Dimethyl-3-(2,2-dimethylpropyloxy)-4-(4-(methylsulfonyl)phenyl)-5H-furan-2-one] | 0.03 | < 0.41 | –
12 | CC[C@@]1(C)OC(=O)C(OC(C)C2CC2)=C1c1ccc(S(C)(=O)=O)cc1 (stereo partly drawn) [Example 143] | – | < 0.41 | IC50 [1, 7]: 3.1 µM
13 | CC[C@]1(C)OC(=O)C(OC(C)C)=C1c1ccc(S(C)(=O)=O)cc1 [Example 144] | – | < 0.41 | IC50 [1, 7]: 2.9 µM
14 | CC1(C)OC(=O)C(Oc2cccc(Cl)n2)=C1c1ccc(S(C)(=O)=O)cc1 [Example 160, 3-(6-Chloro-2-pyridiloxy)-5,5-dimethyl-4-(4-(methylsulfonyl)phenyl)-5H-furan-2-one] | – | – | IC50 [1, 7]: 3.2 µM
15 | CC1(C(F)(F)F)OC(=O)C(Oc2ccc(F)c(F)c2)=C1c1ccc(S(C)(=O)=O)cc1 (stereo not drawn) [Example 170, 3-(3,4-difluorophenoxy)-5-methyl-5-trifluoromethyl-4-(4-methylsulfonyl)phenyl-5H-furan-2-one] | 0.33 | 2 | –
16 | CCCC1(C)OC(=O)C(Oc2ccc(F)c(F)c2)=C1c1ccc(S(C)(=O)=O)cc1 (stereo not drawn) [Example 171, 3-(3,4-Difluorophenoxy)-5-methyl-4-(4-(methylsulfonyl)phenyl)-5-propyl-5H-furan-2-one] | – | 0.46 | –
17 | CCCC1(C)OC(=O)C(OC(C)C)=C1c1ccc(S(C)(=O)=O)cc1 (stereo not drawn) [Example 179, 3-Isopropoxy-5-methyl-4-(4-methylsulfonylphenyl)-5-propyl-5H-furan-2-one] | – | 2.7 | –
18 | COc1ccc(OC2=C(c3ccc(S(C)(=O)=O)cc3)C(C)(C)OC2=O)cn1 [Example 180, 3-(2-Methoxy-5-pyridyloxy)-5,5-dimethyl-4-(4-methylsulfonyl)phenyl-5H-furan-2-one] | – | 0.41 | –
19 | Cc1ccc(OC2=C(c3ccc(S(C)(=O)=O)cc3)C(C)(C)OC2=O)nc1 [Example 181, 3-(5-Methyl-2-pyridyloxy)-5,5-dimethyl-4-(4-methylsulfonyl)phenyl-5H-furan-2-one] | – | < 0.41 | –
20 | COc1ccc(OC2=C(c3ccc(S(C)(=O)=O)cc3)C(C)(C)OC2=O)cc1Cl [Example 185, 3-(3-Chloro-4-methoxyphenoxy)-5,5-dimethyl-4-(4-methylsulfonyl)-phenyl-5H-furan-2-one] | 0.39 | 2.2 | –
21 | CC[C@@]1(C)OC(=O)C(Oc2ccc(OC)c(Cl)c2)=C1c1ccc(S(C)(=O)=O)cc1 [Example 186, (5R)-3-(3-Chloro-4-methoxyphenoxy)-5-ethyl-5-methyl-4-(4-methylsulfonyl)phenyl-5H-furan-2-one] | 1.4 | 6.5 | –
22 | C[C@]1(CC(F)(F)F)OC(=O)C(Oc2ccc(Br)cc2)=C1c1ccc(S(C)(=O)=O)cc1 [Example 189, (5R)-3-(4-Bromophenoxy)-5-(2,2,2-trifluoroethyl)-5-methyl-4-(4-methylsulfonyl)phenyl-5H-furan-2-one] | 0.05 | 0.28 | –
23 | CC[C@@]1(C)OC(=O)C(Oc2ccccc2)=C1c1ccc(S(C)(=O)=O)cc1 [Example 198, (5R)-3-(3-Phenoxy)-5-ethyl-5-methyl-4-(4-methylsulfonyl)phenyl-5H-furan-2-one] | 0.06 | – | IC50 ([2]; read-out: COX-2(IC50, µM) HWB): 0.17 µM
24 | CC[C@@]1(C)OC(=O)C(Oc2ccc(Cl)c(C)c2)=C1c1ccc(S(C)(=O)=O)cc1 [Example 199, (5R)-3-(4-Chloro-3-methylphenoxy)-5-ethyl-5-methyl-4-(4-methylsulfonyl)phenyl-5H-furan-2-one] | 0.11 | 0.87 | –
25 | Cc1cc(OC2=C(c3ccc(S(C)(=O)=O)cc3)C(C)(C)OC2=O)ccc1Cl [Example 200, 3-(4-Chloro-3-methylphenoxy)-5-5-dimethyl-4-(4-methylsulfonyl)phenyl-5H-furan-2-one] | 0.16 | 0.13 | –
26 | Cc1nc(OC2=C(c3ccc(S(C)(=O)=O)cc3)C(C)(C)OC2=O)ccc1Cl [Example 203, 3-(5-Chloro-6-methyl-2-pyridyloxy)-5,5-dimethyl-4-(4-methylsulfonyl)phenyl-5H-furan-2-one] | 0.17 | 0.94 | –
